The record followed here is ChEMBL document CHEMBL1158373, “GRIND-based 3D-QSAR and CoMFA to investigate topics dominated by hydrophobic interactions: the case of hERG K+ channel blockers” (Eur J Med Chem, 2009).

What is called logD is the decadic logarithm of the distribution of all forms, ionised or not, between an organic phase and buffer at a given pH. Lower therefore signals lower lipophilicity. One may read the IC50 as the midpoint of a concentration-inhibition curve. Higher therefore signals weaker potency in that assay. What is called pIC50 is the IC50 on a negative log10 scale, so that one unit is a factor of ten. Low readings indicate a high IC50, high ones a low IC50.

Series [1] is described as follows: Lipophilicity, log D at pH 7.0. The settings on record: buffer.
The target in series [2] is hERG (KCNH2) (Homo sapiens, UniProt Q12809). The series is described as follows: (§1) Inhibition of human ERG in MCF7 cells. The settings on record: human, mcf7.
Series [3] has as its target Voltage-gated inwardly rectifying potassium channel KCNH2 (Homo sapiens, UniProt Q12809). The description is as §1. The following applies: for pIC50: human.

Voltage-gated inwardly rectifying potassium channel KCNH2, sequence (Q12809 whole entry): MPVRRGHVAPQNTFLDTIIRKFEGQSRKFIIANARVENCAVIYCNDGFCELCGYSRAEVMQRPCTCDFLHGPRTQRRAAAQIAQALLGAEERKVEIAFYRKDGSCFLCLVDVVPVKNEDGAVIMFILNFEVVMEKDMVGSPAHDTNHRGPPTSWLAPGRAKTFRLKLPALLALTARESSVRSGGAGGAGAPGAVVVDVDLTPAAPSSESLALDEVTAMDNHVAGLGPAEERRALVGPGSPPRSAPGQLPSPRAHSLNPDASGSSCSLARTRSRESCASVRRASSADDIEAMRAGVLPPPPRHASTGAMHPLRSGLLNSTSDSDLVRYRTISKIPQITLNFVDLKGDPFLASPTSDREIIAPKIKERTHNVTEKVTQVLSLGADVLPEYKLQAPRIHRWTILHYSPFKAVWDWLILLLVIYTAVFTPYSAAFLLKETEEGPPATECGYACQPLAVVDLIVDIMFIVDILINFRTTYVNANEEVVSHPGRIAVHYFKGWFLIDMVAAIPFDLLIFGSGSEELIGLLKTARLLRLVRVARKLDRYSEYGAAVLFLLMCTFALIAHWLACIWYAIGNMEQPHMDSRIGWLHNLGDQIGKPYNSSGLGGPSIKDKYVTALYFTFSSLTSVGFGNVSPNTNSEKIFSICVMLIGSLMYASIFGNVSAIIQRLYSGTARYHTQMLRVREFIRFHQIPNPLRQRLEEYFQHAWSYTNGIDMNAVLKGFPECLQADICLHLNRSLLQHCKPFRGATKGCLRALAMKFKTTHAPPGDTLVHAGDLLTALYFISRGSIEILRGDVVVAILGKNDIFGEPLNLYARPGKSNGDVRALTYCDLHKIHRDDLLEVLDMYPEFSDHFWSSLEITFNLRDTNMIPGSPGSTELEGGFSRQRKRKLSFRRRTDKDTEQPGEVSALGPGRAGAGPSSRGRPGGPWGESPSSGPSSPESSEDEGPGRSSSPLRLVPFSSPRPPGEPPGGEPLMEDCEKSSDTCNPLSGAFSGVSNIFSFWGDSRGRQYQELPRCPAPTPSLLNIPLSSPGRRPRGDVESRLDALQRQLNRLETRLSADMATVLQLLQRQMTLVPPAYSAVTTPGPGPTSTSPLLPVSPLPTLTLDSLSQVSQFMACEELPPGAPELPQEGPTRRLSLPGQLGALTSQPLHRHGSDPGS
hERG (KCNH2), sequence (Q12809 whole entry): as above

With `CCCc1nn(C)c2c(=O)[nH]c(-c3cc(S(=O)(=O)N4CCN(C)CC4)ccc3OCC)nc12`, the pH-dependent lipophilicity (logD) in series [1] was 2.29.

`CN(C)CCC=C1c2ccccc2CCc2ccccc21` [AMITRIPTYLINE]: in series [1], the pH-dependent lipophilicity (logD) amounted to 3.33.

In series [1], `COc1ccc(CCN2CCC(Nc3nc4ccccc4n3Cc3ccc(F)cc3)CC2)cc1` [ASTEMIZOLE] showed a logD of 4.14.

For `CN1CCN(CCCCN2C(=O)CN(/N=C/c3ccc(-c4ccc(Cl)cc4)o3)C2=O)CC1` [AZIMILIDE], the IC50 in series [2] is 0.562 µM. For the same compound, the logD in series [1] was 2.05.

In the case of `CC(C)COCC(CN(Cc1ccccc1)c1ccccc1)N1CCCC1` (stereo not given) [BEPRIDIL], the logD in series [1] was found to be 4.49.

For the compound `CN(C)CCCN1c2ccccc2Sc2ccc(Cl)cc21` [CHLORPROMAZINE], the logD in series [1] came out at 2.99.

`COc1cc(N)c(Cl)cc1C(=O)NC1CCN(CCCOc2ccc(F)cc2)CC1OC` (stereo not given) [CISAPRIDE] yielded a logD in series [1] of 2.05.

Turning to `CN1CCN(C2=Nc3cc(Cl)ccc3Nc3ccccc32)CC1` [CLOZAPINE], the logD in series [1] worked out at 4.41.

In series [1], `COC(=O)[C@H]1[C@@H](OC(=O)c2ccccc2)C[C@@H]2CC[C@H]1N2C` [COCAINE] gave a logD of 0.41.

The compound `COc1ccc([C@@H]2Sc3ccccc3N(CCN(C)C)C(=O)[C@@H]2OC(C)=O)cc1` [DILTIAZEM] showed a logD in series [1] of 1.62.

As for `CN(CCOc1ccc(NS(C)(=O)=O)cc1)CCc1ccc(NS(C)(=O)=O)cc1` [DOFETILIDE], in series [1], the logD was found to be 0.68.

For `O=C(O[C@@H]1C[C@@H]2C[C@H]3C[C@H](C1)N2CC3=O)c1c[nH]c2ccccc12` [DOLASETRON], the logD in series [1] was determined as 2.6.

In the case of `O=c1[nH]c2ccccc2n1CCCN1CCC(n2c(=O)[nH]c3cc(Cl)ccc32)CC1` [DOMPERIDONE], the logD in series [1] is 3.15.

For the compound `O=C(CCCN1CC=C(n2c(=O)[nH]c3ccccc32)CC1)c1ccc(F)cc1` [DROPERIDOL], the logD in series [1] turned out to be 2.25.

Regarding `COc1c(N2CCNC(C)C2)c(F)cc2c(=O)c(C(=O)O)cn(C3CC3)c12` (stereo not given) [GATIFLOXACIN], the IC50 in series [3] was 129 µM. Moreover, the logD in series [1] is on record as -2.96.

On to `COc1ccc(Cl)cc1C(=O)NCCc1ccc(S(=O)(=O)NC(=O)NC2CCCCC2)cc1` [GLYBURIDE], for which the logD in series [1] is 2.23.

As for `CN1C2CCCC1CC(NC(=O)c1nn(C)c3ccccc13)C2` (stereo not given) [GRANISETRON], in series [1], the logD is -1.72.

Consider `Cc1c(F)c(N2CCNC(C)C2)cc2c1c(=O)c(C(=O)O)cn2C1CC1` (stereo not given) [GREPAFLOXACIN], for which, in series [1], the logD was -1.47.

In the case of `CCCCN(CCCC)CCC(O)c1cc2c(Cl)cc(Cl)cc2c2cc(C(F)(F)F)ccc12` (stereo not given) [HALOFANTRINE], the logD in series [1] was found to be 5.68.

On to `O=C(CCCN1CCC(O)(c2ccc(Cl)cc2)CC1)c1ccc(F)cc1` [HALOPERIDOL], for which the logD in series [1] was determined as 1.82.

In turn, `COCC(=O)O[C@]1(CCN(C)CCCc2nc3ccccc3[nH]2)CCc2cc(F)ccc2[C@@H]1C(C)C` [MIBEFRADIL] yielded a logD in series [1] of 1.96.

`CN(c1nccc(=O)[nH]1)C1CCN(c2nc3ccccc3n2Cc2ccc(F)cc2)CC1` [MIZOLASTINE] showed a pIC50 in series [3] (mcf7) of 6.45. Besides, the logD in series [1] amounted to 1.96.

With `C1CCC(C(CC2CCCCN2)C2CCCCC2)CC1` (stereo not given) [PERHEXILINE], the logD in series [1] came out at 2.81.

Take `O=c1[nH]c2ccccc2n1C1CCN(CCCC(c2ccc(F)cc2)c2ccc(F)cc2)CC1` [PIMOZIDE]: the logD in series [1] came to 5.11.

For `Cc1nc2n(c(=O)c1CCN1CCC(c3noc4cc(F)ccc34)CC1)CCCC2` [RISPERIDONE], the logD in series [1] turned out to be 0.71.

`O=C1NCCN1CCN1CCC(c2cn(-c3ccc(F)cc3)c3ccc(Cl)cc23)CC1` [SERTINDOLE]: the logD in series [1] is 2.65.

`C[C@@H]1CN(c2c(F)c(N)c3c(=O)c(C(=O)O)cn(C4CC4)c3c2F)C[C@H](C)N1` [SPARFLOXACIN] showed a pIC50 in series [3] (MCF7 cells) of 4.58. Moreover, the logD in series [1] was -3.4.

On to `Fc1ccc(Cn2c(NC3CCNCC3)nc3ccccc32)cc1` [TECASTEMIZOLE], for which, in series [1], the logD was 0.16.

For the compound `CC(C)(C)c1ccc(C(O)CCCN2CCC(C(O)(c3ccccc3)c3ccccc3)CC2)cc1` (stereo not given) [TERFENADINE], the logD in series [1] amounted to 4.11.

Turning to `CSc1ccc2c(c1)N(CCC1CCCCN1C)c1ccccc1S2` (stereo not given) [THIORIDAZINE], in series [1], the logD worked out at 3.83.

For the compound `O=C1Cc2cc(CCN3CCN(c4nsc5ccccc45)CC3)c(Cl)cc2N1` [ZIPRASIDONE], in series [1], the logD is 3.93.
